Assay results as given in the CheMixHub ionic liquid set.

Experiment: xn = mol fraction of the nth substance listed

CCCC[N+]1(C)CCCC1.N#C[C-](C#N)C#N + c1ccc2sccc2c1
101 kPa
Settings	viscosity [mPa·s]
308.15 K, x2 = 0	20.6
308.15 K, x2 = 0.5267	11.92
328.15 K, x2 = 0.5267	7.1
338.15 K, x2 = 0.3565	6.96

c1ccsc1 + CCCC[n+]1ccn(C)c1.N#C[S-]
100 kPa, x1 = 1
Settings	viscosity [mPa·s]
298.15 K	0.655
308.15 K	0.585
318.15 K	0.525
328.15 K	0.47

CC[n+]1ccn(C)c1.N#C[S-] + CC[n+]1ccn(C)c1.CS(=O)(=O)[O-] + O
100 kPa, x1 = 1, x2 = 0
Settings	viscosity [mPa·s]
298.15 K	23.91
323.15 K	11.7

CC[S+](CC)CCOCCOCCOCC[S+](CC)CC.O=S(=O)([N-]S(=O)(=O)C(F)(F)F)C(F)(F)F.O=S(=O)([N-]S(=O)(=O)C(F)(F)F)C(F)(F)F + CC[n+]1ccn(C)c1.N#C[N-]C#N + O=S(=O)([N-]S(=O)(=O)C(F)(F)F)C(F)(F)F.[Li+]
100 kPa, x1 = 0.1475, x2 = 0.7497
Settings	electrical conductivity [S/m]
298 K	0.673
303 K	0.826
313 K	1.15
323 K	1.46
333 K	1.79
343 K	2.05

CCCCCCCC[n+]1ccccc1.[Br-] + NCC(=O)O + O
100 kPa
Settings	electrical conductivity [S/m]
288.15 K, x2 = 0.0008947, x1 = 0.006107	1.24
288.15 K, x2 = 0.000895, x1 = 0.005825	1.21
288.15 K, x2 = 0.0008952, x1 = 0.005524	1.18
288.15 K, x2 = 0.0008955, x1 = 0.005206	1.15
288.15 K, x2 = 0.0008958, x1 = 0.004856	1.11
288.15 K, x2 = 0.0008962, x1 = 0.004472	1.07
288.15 K, x2 = 0.0008965, x1 = 0.004053	1
288.15 K, x2 = 0.0008969, x1 = 0.003596	0.923
288.15 K, x2 = 0.0008974, x1 = 0.003095	0.831
288.15 K, x2 = 0.0008979, x1 = 0.00254	0.716
288.15 K, x2 = 0.0008984, x1 = 0.00193	0.579
288.15 K, x2 = 0.0008988, x1 = 0.001523	0.48
288.15 K, x2 = 0.0008992, x1 = 0.00113	0.377
288.15 K, x2 = 0.0008996, x1 = 0.000679	0.257
288.15 K, x2 = 0.001793, x1 = 0.003383	0.886
288.15 K, x2 = 0.001794, x1 = 0.002789	0.766
288.15 K, x2 = 0.001795, x1 = 0.002127	0.621
288.15 K, x2 = 0.001796, x1 = 0.00171	0.522
288.15 K, x2 = 0.001797, x1 = 0.0007678	0.279
288.15 K, x2 = 0.001797, x1 = 0.001253	0.407
293.15 K, x2 = 0.0008947, x1 = 0.006101	1.41
293.15 K, x2 = 0.000895, x1 = 0.005819	1.38
293.15 K, x2 = 0.0008952, x1 = 0.005519	1.34
293.15 K, x2 = 0.0008955, x1 = 0.005201	1.3
293.15 K, x2 = 0.0008958, x1 = 0.00485	1.26
293.15 K, x2 = 0.0008962, x1 = 0.004469	1.21
293.15 K, x2 = 0.0008965, x1 = 0.00405	1.13
293.15 K, x2 = 0.0008969, x1 = 0.003594	1.05
293.15 K, x2 = 0.0008974, x1 = 0.003091	0.935
293.15 K, x2 = 0.0008979, x1 = 0.002538	0.809
293.15 K, x2 = 0.0008985, x1 = 0.001923	0.652
293.15 K, x2 = 0.0008988, x1 = 0.001521	0.542
293.15 K, x2 = 0.0008992, x1 = 0.00113	0.423
293.15 K, x2 = 0.0008996, x1 = 0.000679	0.285
293.15 K, x2 = 0.001793, x1 = 0.003379	1
293.15 K, x2 = 0.001794, x1 = 0.002785	0.864
293.15 K, x2 = 0.001795, x1 = 0.002125	0.701
293.15 K, x2 = 0.001796, x1 = 0.001708	0.589
293.15 K, x2 = 0.001797, x1 = 0.0007678	0.312
293.15 K, x2 = 0.001797, x1 = 0.001251	0.458
298.15 K, x2 = 0.0008947, x1 = 0.006092	1.59
298.15 K, x2 = 0.000895, x1 = 0.005812	1.55
298.15 K, x2 = 0.0008952, x1 = 0.005512	1.51
298.15 K, x2 = 0.0008955, x1 = 0.005195	1.47
298.15 K, x2 = 0.0008958, x1 = 0.004845	1.42
298.15 K, x2 = 0.0008962, x1 = 0.004462	1.35
298.15 K, x2 = 0.0008965, x1 = 0.004044	1.27
298.15 K, x2 = 0.000897, x1 = 0.003589	1.18
298.15 K, x2 = 0.0008974, x1 = 0.003088	1.05
298.15 K, x2 = 0.0008979, x1 = 0.002534	0.906
298.15 K, x2 = 0.0008985, x1 = 0.001921	0.725
298.15 K, x2 = 0.0008988, x1 = 0.001519	0.603
298.15 K, x2 = 0.0008992, x1 = 0.001128	0.473
298.15 K, x2 = 0.0008996, x1 = 0.0006772	0.315
298.15 K, x2 = 0.001793, x1 = 0.003376	1.11
298.15 K, x2 = 0.001794, x1 = 0.002781	0.967
298.15 K, x2 = 0.001795, x1 = 0.002123	0.782
298.15 K, x2 = 0.001796, x1 = 0.001706	0.657
298.15 K, x2 = 0.001797, x1 = 0.000766	0.347
298.15 K, x2 = 0.001797, x1 = 0.001249	0.511
303.15 K, x2 = 0.0008947, x1 = 0.006085	1.78
303.15 K, x2 = 0.000895, x1 = 0.005803	1.74
303.15 K, x2 = 0.0008952, x1 = 0.005503	1.69
303.15 K, x2 = 0.0008955, x1 = 0.005188	1.64
303.15 K, x2 = 0.0008958, x1 = 0.004838	1.58
303.15 K, x2 = 0.0008962, x1 = 0.004456	1.51
303.15 K, x2 = 0.0008965, x1 = 0.004039	1.42
303.15 K, x2 = 0.000897, x1 = 0.003583	1.3
303.15 K, x2 = 0.0008974, x1 = 0.003082	1.17
303.15 K, x2 = 0.0008979, x1 = 0.002531	1
303.15 K, x2 = 0.0008985, x1 = 0.001917	0.791
303.15 K, x2 = 0.0008988, x1 = 0.001517	0.654
303.15 K, x2 = 0.0008992, x1 = 0.001126	0.519
303.15 K, x2 = 0.0008996, x1 = 0.0006772	0.351
303.15 K, x2 = 0.001793, x1 = 0.00337	1.24
303.15 K, x2 = 0.001794, x1 = 0.002778	1.08
303.15 K, x2 = 0.001795, x1 = 0.002119	0.859
303.15 K, x2 = 0.001796, x1 = 0.001704	0.719
303.15 K, x2 = 0.001797, x1 = 0.000766	0.383
303.15 K, x2 = 0.001797, x1 = 0.001247	0.566
308.15 K, x2 = 0.0008947, x1 = 0.006075	2.03
308.15 K, x2 = 0.000895, x1 = 0.005792	1.97
308.15 K, x2 = 0.0008952, x1 = 0.005494	1.9
308.15 K, x2 = 0.0008955, x1 = 0.005178	1.84
308.15 K, x2 = 0.0008958, x1 = 0.004829	1.75
308.15 K, x2 = 0.0008962, x1 = 0.004449	1.66
308.15 K, x2 = 0.0008966, x1 = 0.004032	1.57
308.15 K, x2 = 0.000897, x1 = 0.003578	1.44
308.15 K, x2 = 0.0008974, x1 = 0.003077	1.26
308.15 K, x2 = 0.0008979, x1 = 0.002527	1.07
308.15 K, x2 = 0.0008985, x1 = 0.001914	0.861
308.15 K, x2 = 0.0008988, x1 = 0.001516	0.717
308.15 K, x2 = 0.0008992, x1 = 0.001125	0.574
308.15 K, x2 = 0.0008996, x1 = 0.0006754	0.425
308.15 K, x2 = 0.001793, x1 = 0.003365	1.36
308.15 K, x2 = 0.001794, x1 = 0.002774	1.17
308.15 K, x2 = 0.001795, x1 = 0.002116	0.934
308.15 K, x2 = 0.001796, x1 = 0.001701	0.79
308.15 K, x2 = 0.001797, x1 = 0.0007642	0.453
308.15 K, x2 = 0.001797, x1 = 0.001245	0.624

CCCC(=O)O + CC(CC(C)(C)C)CP(=O)([O-])CC(C)CC(C)(C)C.CCCCCCCCCCCCCC[P+](CCCCCC)(CCCCCC)CCCCCC + O
100 kPa
Settings	viscosity [mPa·s]
298 K, x2 = 0.09014, x1 = 0.601	53
298 K, x2 = 0.09759, x1 = 0.6041	54
298 K, x2 = 0.1129, x1 = 0.5867	83
310 K, x2 = 0.08641, x1 = 0.594	30
310 K, x2 = 0.1138, x1 = 0.593	47
310 K, x2 = 0.1346, x1 = 0.5734	58
310 K, x2 = 0.1366, x1 = 0.07313	82
310 K, x2 = 0.1673, x1 = 0.1732	84
310 K, x2 = 0.1882, x1 = 0.4901	87
310 K, x2 = 0.1908, x1 = 0.2923	90
310 K, x2 = 0.1962, x1 = 0.4196	91
318 K, x2 = 0.08808, x1 = 0.5881	24
318 K, x2 = 0.1141, x1 = 0.5826	35
318 K, x2 = 0.1336, x1 = 0.5507	44
